{"source": "patent US20080140138A1", "about": "“Inhibition of inflammatory cytokine production by stimulation of brain muscarinic receptors” (priority 2002, published 2008)", "key": {"[1]": {"molecular_target": "T1, Muscarinic, M3 (Human recombinant) (Homo sapiens, UniProt P20309)", "T1 construct": "NovaScreen Biosciences Corporation (contract laboratory that ran the assay)", "T1 sequence (P20309 whole entry)": "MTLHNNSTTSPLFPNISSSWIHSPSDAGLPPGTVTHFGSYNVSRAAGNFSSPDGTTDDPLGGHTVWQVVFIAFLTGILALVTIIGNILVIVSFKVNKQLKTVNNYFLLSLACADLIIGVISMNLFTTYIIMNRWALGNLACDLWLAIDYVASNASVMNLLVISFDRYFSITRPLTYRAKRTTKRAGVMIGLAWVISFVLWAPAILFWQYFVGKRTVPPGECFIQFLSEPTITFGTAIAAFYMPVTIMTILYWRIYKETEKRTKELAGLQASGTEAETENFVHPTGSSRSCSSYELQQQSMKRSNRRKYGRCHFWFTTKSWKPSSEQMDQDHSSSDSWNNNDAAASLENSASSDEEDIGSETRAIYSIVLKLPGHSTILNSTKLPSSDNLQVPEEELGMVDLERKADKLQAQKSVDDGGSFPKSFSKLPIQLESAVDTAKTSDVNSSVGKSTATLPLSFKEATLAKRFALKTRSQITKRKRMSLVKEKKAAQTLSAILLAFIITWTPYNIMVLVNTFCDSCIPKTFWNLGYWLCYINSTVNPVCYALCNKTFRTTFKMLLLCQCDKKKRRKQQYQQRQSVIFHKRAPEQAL", "test": "NovaScreen muscarinic receptor binding panel", "conditions": "10 μM, average of duplicate tubes", "protocol": "(§1) Method of determining muscarinic receptor subtype. CNI-1493 was tested at a single concentration (10 μM) in a panel of muscarinic receptor binding assays by NovaScreen Biosciences Corporation (Hanover, Md.). Values were expressed as the percent inhibition of specific binding, and represented the average of duplicate tubes."}, "[2]": {"molecular_target": "Muscarinic, M1 (Human recombinant) (Homo sapiens, UniProt P11229)", "sequence (P11229 whole entry)": "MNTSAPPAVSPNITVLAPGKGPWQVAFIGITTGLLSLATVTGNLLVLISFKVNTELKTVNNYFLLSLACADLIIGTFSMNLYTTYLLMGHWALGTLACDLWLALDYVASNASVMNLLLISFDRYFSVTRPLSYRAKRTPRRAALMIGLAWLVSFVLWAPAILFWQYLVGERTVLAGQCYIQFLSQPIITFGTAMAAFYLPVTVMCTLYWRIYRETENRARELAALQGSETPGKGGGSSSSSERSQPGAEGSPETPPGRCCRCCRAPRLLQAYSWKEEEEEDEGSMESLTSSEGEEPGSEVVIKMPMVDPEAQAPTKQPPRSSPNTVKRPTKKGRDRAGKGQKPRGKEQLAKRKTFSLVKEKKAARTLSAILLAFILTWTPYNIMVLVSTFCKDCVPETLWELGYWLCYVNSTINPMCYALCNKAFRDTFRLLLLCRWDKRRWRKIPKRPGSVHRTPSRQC", "test": "NovaScreen muscarinic receptor binding panel", "conditions": "10 μM, average of duplicate tubes", "protocol": "as §1"}, "[3]": {"molecular_target": "T2, Muscarinic, M5 (Human recombinant) (Homo sapiens, UniProt P08912)", "T2 construct": "NovaScreen Biosciences Corporation (contract laboratory that ran the assay)", "test": "NovaScreen muscarinic receptor binding panel", "conditions": "10 μM, average of duplicate tubes", "protocol": "as §1"}, "Muscarinic, M3": {"tested_on": "Muscarinic, M3", "test": "NovaScreen muscarinic receptor binding panel", "conditions": "10 μM, average of duplicate tubes", "protocol": "as §1"}, "Muscarinic, M1": {"tested_on": "Muscarinic, M1", "test": "NovaScreen muscarinic receptor binding panel", "conditions": "10 μM, average of duplicate tubes", "protocol": "as §1"}, "[4]": {"molecular_target": "Muscarinic, M2 (Human recombinant) (Homo sapiens, UniProt P08172)", "sequence (P08172 whole entry)": "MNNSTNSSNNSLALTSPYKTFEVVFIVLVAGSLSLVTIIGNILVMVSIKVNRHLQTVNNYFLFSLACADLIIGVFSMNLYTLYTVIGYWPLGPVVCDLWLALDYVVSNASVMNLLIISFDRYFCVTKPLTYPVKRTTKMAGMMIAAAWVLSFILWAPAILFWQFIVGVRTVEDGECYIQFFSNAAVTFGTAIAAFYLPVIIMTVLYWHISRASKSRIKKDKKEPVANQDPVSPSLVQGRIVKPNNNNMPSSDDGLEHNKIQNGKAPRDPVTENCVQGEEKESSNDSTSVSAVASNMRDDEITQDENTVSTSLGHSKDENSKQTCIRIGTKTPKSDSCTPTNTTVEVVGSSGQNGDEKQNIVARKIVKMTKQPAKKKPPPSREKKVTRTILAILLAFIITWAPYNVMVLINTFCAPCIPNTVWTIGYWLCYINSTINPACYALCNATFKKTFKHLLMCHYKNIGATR", "test": "NovaScreen muscarinic receptor binding panel", "conditions": "10 μM, average of duplicate tubes", "protocol": "as §1"}, "Muscarinic, M2": {"tested_on": "Muscarinic, M2", "test": "NovaScreen muscarinic receptor binding panel", "conditions": "10 μM, average of duplicate tubes", "protocol": "as §1"}, "[5]": {"molecular_target": "T3, Muscarinic, M4 (Human recombinant) (Homo sapiens, UniProt P08173)", "T3 construct": "NovaScreen Biosciences Corporation (contract laboratory that ran the assay)", "T3 sequence (P08173 whole entry)": "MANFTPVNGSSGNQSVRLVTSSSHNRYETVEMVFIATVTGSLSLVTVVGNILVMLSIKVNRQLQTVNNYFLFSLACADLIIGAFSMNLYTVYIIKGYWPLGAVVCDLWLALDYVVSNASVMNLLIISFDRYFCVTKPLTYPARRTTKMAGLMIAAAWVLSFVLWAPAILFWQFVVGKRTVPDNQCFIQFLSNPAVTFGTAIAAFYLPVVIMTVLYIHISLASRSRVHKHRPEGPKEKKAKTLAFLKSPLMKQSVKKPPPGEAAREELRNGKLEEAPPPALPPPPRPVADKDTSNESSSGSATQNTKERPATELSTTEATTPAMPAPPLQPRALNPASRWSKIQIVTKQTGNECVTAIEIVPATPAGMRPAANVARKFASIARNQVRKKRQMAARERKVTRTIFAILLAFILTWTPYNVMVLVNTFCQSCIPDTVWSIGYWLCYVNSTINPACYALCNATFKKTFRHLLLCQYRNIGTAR", "test": "NovaScreen muscarinic receptor binding panel", "conditions": "10 μM, average of duplicate tubes", "protocol": "as §1"}, "LPS-induced serum TNF": {"tested_on": "LPS-induced serum TNF", "test": "LPS-induced serum TNF after i.c.v. drug injection, L929 bioactivity assay", "assay_type": "in vivo, Lewis rats", "conditions": "5 μg/rat i.c.v., 1 h before LPS 15 mg/kg i.v.; blood 2 h post LPS", "experimental": "Method of stereotactic intracerebroventricular injections. […] Lewis rats were anaesthetized with urethane (1 g/kg, i.p.) and xylazine (15 mg/rat, i.m. (intramuscular)). Rats were then placed in a stereotactic head frame (Stoelting, Wood Dale, Ill., USA). The incisor bar was adjusted until the plane defined by the lambda and bregma was parallel to the base plate. For i.c.v. injections the needle of a Hamilton syringe (25 μl) was positioned stereotactically above the lateral ventricle (0.2 mm and 1.5 mm posterior to bregma, 3.2 mm below the dura.) Solutions of the drugs tested were prepared in sterile endotoxin-free water, at the specified concentrations, and a 10-μl injection/rat was administered over 2 min, 1 h prior to either carrageenan injection, or to LPS.\nMethod of LPS injections and TNF determination. LPS (15 mg/kg, i.v.) was injected in the tail vein 1 h after drug injection. Blood was obtained 2 h post LPS injection by paraorbital bleeding. Serum TNF concentrations were determined by an L929 bioactivity assay. Method of assessing TNF by the L929 bioactivity assay. L929 cells were suspended in Dulbecco's minimal Eagle's medium (DMEM; GibcoBRL) supplemented with fetal bovine serum (10%; Hyclone) and penicillin/streptomycin (0.5%; Sigma Chemical Co.), and plated at 2×10^4 cells per well in 96-well flat-bottomed microtiter plates. After 24 h, media were respirated and replaced with medium containing cycloheximide (10 μg/ml; Sigma Chemical Co.) and the samples to be assayed/TNF standards. Plates were incubated overnight, at which time cell viability as a function of TNF concentration was assessed by the MTT assay. Absorbance values were converted to units per milliliter by comparison with a standard curve for rat TNF.\nIn one set of experiments, rats were injected by i.c.v. means with either saline (n=1), CNI-1493 (5 μg/rat, n=3), CNI-1493 plus atropine (5 μg/rat each), or atropine (5 μg/rat). LPS (15 mg/kg, i.v.) was given 1 h later. Blood was collected 2 h post LPS administration. Serum TNF was determined by the L929 assay."}, "alpha 1 adrenergic": {"tested_on": "alpha 1 adrenergic", "test": "NovaScreen receptor binding panel, CNI-1493 at 10 μM", "conditions": "average of duplicate tubes", "protocol": "(§2) Method of determining CNI-1493 receptor binding. CNI-1493 was tested at a single concentration (10 μM) in a panel of receptor binding assays by NovaScreen Biosciences Corporation (Hanover, Md.). Values were expressed as the percent inhibition of specific binding, and represented the average of duplicate tubes. Method of stereotactic intracerebroventricular injections. A rat model of intracerebroventricular (i.c.v.) injections was established in order to be able to directly deliver pharmacological agents into the brain of rats. This was necessary in order to separate drug effects on peripheral inflammation that occurred through central versus peripheral mechanisms. Lewis rats were anaesthetized with urethane (1 g/kg, i.p.) and xylazine (15 mg/rat, i.m. (intramuscular)). Rats were then placed in a stereotactic head frame (Stoelting, Wood Dale, Ill., USA). The incisor bar was adjusted until the plane defined by the lambda and bregma was parallel to the base plate. For i.c.v. injections the needle of a Hamilton syringe (25 μl) was positioned stereotactically above the lateral ventricle (0.2 mm and 1.5 mm posterior to bregma, 3.2 mm below the dura.) Solutions of the drugs tested were prepared in sterile endotoxin-free water, at the specified concentrations, and a 10-μl injection/rat was administered over 2 min, 1 h prior to either carrageenan injection, or to LPS."}, "epidermal growth factor": {"molecular_target": "epidermal growth factor (Homo sapiens, UniProt P00533)", "sequence (P00533 25-1210)": "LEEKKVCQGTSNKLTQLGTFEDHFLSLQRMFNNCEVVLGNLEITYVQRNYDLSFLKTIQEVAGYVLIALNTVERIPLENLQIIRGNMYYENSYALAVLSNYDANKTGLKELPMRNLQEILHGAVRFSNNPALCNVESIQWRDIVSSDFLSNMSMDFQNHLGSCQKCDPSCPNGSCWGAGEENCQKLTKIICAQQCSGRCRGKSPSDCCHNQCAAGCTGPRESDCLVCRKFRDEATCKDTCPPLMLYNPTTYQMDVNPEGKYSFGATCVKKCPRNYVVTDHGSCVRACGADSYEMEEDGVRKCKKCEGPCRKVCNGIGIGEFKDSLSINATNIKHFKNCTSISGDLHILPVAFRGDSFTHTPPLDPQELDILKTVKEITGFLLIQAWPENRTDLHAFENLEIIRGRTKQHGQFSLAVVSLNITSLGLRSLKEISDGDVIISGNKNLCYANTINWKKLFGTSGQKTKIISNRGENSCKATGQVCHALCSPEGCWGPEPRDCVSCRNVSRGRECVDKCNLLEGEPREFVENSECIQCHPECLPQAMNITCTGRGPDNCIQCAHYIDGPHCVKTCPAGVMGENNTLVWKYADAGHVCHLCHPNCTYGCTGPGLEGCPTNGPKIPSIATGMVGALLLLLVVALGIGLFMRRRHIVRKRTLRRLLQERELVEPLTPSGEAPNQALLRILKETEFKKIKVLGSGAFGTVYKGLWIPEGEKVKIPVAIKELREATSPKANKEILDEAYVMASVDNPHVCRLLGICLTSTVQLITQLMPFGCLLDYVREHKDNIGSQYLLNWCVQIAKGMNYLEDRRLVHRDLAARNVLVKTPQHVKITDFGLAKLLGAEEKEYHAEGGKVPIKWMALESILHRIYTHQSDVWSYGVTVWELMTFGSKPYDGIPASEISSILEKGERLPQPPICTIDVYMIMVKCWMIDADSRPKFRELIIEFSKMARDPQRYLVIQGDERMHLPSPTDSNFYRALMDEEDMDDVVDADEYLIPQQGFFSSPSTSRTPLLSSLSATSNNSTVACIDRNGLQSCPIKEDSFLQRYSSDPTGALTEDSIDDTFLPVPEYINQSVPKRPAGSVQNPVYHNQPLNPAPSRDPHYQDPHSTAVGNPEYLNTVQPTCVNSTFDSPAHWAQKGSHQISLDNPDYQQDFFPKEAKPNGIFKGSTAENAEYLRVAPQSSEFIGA", "test": "NovaScreen receptor binding panel", "conditions": "10 μM; <50% = marginal or no activity", "protocol": "as §2"}, "H1 histamine": {"molecular_target": "H1 histamine (Homo sapiens, UniProt P35367)", "sequence (P35367 whole entry)": "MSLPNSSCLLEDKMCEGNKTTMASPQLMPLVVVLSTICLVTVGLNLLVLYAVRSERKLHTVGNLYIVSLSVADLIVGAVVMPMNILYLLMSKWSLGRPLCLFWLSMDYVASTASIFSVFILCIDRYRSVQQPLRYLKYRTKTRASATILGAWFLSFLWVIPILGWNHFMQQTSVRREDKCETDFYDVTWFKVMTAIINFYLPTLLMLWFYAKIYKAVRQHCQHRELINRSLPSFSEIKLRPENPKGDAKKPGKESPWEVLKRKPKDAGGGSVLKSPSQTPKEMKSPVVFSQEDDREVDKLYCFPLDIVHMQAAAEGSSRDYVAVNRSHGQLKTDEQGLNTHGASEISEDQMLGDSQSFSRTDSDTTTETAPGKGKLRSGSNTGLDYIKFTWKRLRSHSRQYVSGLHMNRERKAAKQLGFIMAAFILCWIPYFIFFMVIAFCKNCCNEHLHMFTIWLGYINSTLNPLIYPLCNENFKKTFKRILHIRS", "test": "NovaScreen receptor binding panel", "conditions": "10 μM; <50% = marginal or no activity", "protocol": "as §2"}, "site 2 sodium": {"tested_on": "site 2 sodium", "test": "NovaScreen receptor binding panel", "conditions": "10 μM; <50% = marginal or no activity", "protocol": "as §2"}, "Type L calcium channel": {"tested_on": "Type L calcium channel", "test": "NovaScreen receptor binding panel", "conditions": "10 μM; <50% = marginal or no activity", "protocol": "as §2"}, "[6]": {"tested_on": "vasoactive intestinal peptide", "test": "NovaScreen receptor binding panel", "conditions": "10 μM, average of duplicate tubes", "protocol": "as §2"}, "Type N calcium channel": {"molecular_target": "Type N calcium channel (Homo sapiens, UniProt Q00975)", "test": "NovaScreen receptor binding panel", "conditions": "10 μM, average of duplicate tubes", "protocol": "as §2"}, "leukotriene D4 and LTD4": {"tested_on": "leukotriene D4 and LTD4", "test": "NovaScreen receptor binding panel", "conditions": "10 μM; <50% = marginal or no activity", "protocol": "as §2"}, "dopamine": {"tested_on": "dopamine", "test": "NovaScreen receptor binding panel", "conditions": "10 μM; <50% = marginal or no activity", "protocol": "as §2"}, "thromboxane A2": {"molecular_target": "thromboxane A2 (Homo sapiens, UniProt P21731)", "sequence (P21731 whole entry)": "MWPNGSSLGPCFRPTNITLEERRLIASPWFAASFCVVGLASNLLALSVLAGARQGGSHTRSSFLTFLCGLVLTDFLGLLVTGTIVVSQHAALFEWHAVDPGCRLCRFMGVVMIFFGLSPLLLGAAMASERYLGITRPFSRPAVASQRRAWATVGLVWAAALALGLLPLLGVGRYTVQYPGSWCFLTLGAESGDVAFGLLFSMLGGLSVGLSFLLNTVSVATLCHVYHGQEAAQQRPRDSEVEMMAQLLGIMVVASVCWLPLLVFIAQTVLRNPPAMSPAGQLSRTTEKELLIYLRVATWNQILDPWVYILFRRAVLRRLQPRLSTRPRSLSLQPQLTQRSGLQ", "test": "NovaScreen receptor binding panel", "conditions": "10 μM; <50% = marginal or no activity", "protocol": "as §2"}, "[7]": {"tested_on": "glutamate (NMDA agonist site)", "test": "NovaScreen receptor binding panel", "conditions": "10 μM; <50% = marginal or no activity", "protocol": "as §2"}, "site 1 sodium": {"tested_on": "site 1 sodium", "test": "NovaScreen receptor binding panel", "conditions": "10 μM; <50% = marginal or no activity", "protocol": "as §2"}, "[8]": {"tested_on": "voltage-sensitive potassium channel", "test": "NovaScreen receptor binding panel", "conditions": "10 μM, average of duplicate tubes", "protocol": "as §2"}, "NK1 neurokinin": {"molecular_target": "NK1 neurokinin (Homo sapiens, UniProt P25103)", "sequence (P25103 whole entry)": "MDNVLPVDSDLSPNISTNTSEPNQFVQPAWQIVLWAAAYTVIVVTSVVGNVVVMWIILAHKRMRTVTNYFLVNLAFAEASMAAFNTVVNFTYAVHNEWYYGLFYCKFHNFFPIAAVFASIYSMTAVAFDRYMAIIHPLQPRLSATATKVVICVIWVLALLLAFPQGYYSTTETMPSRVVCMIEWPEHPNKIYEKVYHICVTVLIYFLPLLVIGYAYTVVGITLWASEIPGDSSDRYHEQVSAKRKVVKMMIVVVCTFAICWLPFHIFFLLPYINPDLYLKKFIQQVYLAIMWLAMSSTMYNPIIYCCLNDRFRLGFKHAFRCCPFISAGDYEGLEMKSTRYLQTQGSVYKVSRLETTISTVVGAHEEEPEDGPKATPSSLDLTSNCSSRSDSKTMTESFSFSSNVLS", "test": "NovaScreen receptor binding panel", "conditions": "10 μM; <50% = marginal or no activity", "protocol": "as §2"}, "serotonin": {"tested_on": "serotonin", "test": "NovaScreen receptor binding panel", "conditions": "10 μM, average of duplicate tubes", "protocol": "as §2"}, "muscarinic": {"tested_on": "muscarinic", "test": "NovaScreen receptor binding panel", "conditions": "10 μM, average of duplicate tubes", "protocol": "as §2"}, "vasopressin 1": {"molecular_target": "vasopressin 1 (Homo sapiens, UniProt P37288)", "sequence (P37288 whole entry)": "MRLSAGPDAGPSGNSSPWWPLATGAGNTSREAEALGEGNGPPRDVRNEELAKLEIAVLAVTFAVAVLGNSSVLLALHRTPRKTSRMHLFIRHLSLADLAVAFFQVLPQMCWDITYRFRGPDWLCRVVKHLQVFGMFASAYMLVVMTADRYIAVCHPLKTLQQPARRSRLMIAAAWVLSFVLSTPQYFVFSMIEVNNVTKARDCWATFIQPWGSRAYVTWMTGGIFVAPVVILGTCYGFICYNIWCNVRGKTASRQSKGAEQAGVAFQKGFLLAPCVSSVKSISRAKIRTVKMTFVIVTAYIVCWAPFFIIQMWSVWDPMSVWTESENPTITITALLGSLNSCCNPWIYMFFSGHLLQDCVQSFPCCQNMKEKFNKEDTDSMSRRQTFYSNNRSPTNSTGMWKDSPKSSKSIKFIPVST", "test": "NovaScreen receptor binding panel", "conditions": "10 μM; <50% = marginal or no activity", "protocol": "as §2"}, "[9]": {"tested_on": "voltage-insensitive potassium channel", "test": "NovaScreen receptor binding panel", "conditions": "10 μM, average of duplicate tubes", "protocol": "as §2"}, "beta adrenergic": {"tested_on": "beta adrenergic", "test": "NovaScreen receptor binding panel", "conditions": "10 μM; <50% = marginal or no activity", "protocol": "as §2"}, "chloride channel": {"tested_on": "chloride channel", "test": "NovaScreen receptor binding panel", "conditions": "10 μM; <50% = marginal or no activity", "protocol": "as §2"}}}
{"smiles": "CC(=NNC(=N)N)c1cc(NC(=O)CCCCCCCCC(=O)Nc2cc(C(C)=NNC(=N)N)cc(C(C)=NNC(=N)N)c2)cc(C(C)=NNC(=N)N)c1.Cl.Cl.Cl.Cl", "note": "[CNI-1493, N,N′-bis(3,5-diacetylphenyl) decanediamide tetrakis (amidinohydrazone) tetrahydrochloride]", "values": [{"measurement": "Percent inhibition", "setting": "[1]", "value": 40, "unit": "%"}, {"measurement": "Percent inhibition", "setting": "[2]", "value": 72, "unit": "%"}, {"measurement": "Percent inhibition", "setting": "[3]", "value": 43, "unit": "%"}, {"measurement": "Percent inhibition", "setting": "Muscarinic, M3", "value": 9, "unit": "%"}, {"measurement": "Percent inhibition", "setting": "Muscarinic, M1", "value": 83, "unit": "%"}, {"measurement": "Percent inhibition", "setting": "[4]", "value": 58, "unit": "%"}, {"measurement": "Percent inhibition", "setting": "Muscarinic, M2", "value": 85, "unit": "%"}, {"measurement": "Percent inhibition", "setting": "[5]", "value": 57, "unit": "%"}, {"measurement": "inhibition of LPS-induced serum TNF levels", "setting": "LPS-induced serum TNF", "value": "more than 80%"}, {"measurement": "percent inhibition of specific binding", "setting": "alpha 1 adrenergic", "value": 89.7, "unit": "%"}, {"measurement": "percent inhibition of receptor binding", "setting": "epidermal growth factor", "value": "less than 50%"}, {"measurement": "percent inhibition of receptor binding", "setting": "H1 histamine", "value": "less than 50%"}, {"measurement": "percent inhibition of receptor binding", "setting": "site 2 sodium", "value": "less than 50%"}, {"measurement": "percent inhibition of receptor binding", "setting": "Type L calcium channel", "value": "less than 50%"}, {"measurement": "percent inhibition of specific binding", "setting": "[6]", "value": 58.5, "unit": "%"}, {"measurement": "percent inhibition of specific binding", "setting": "Type N calcium channel", "value": 84.2, "unit": "%"}, {"measurement": "percent inhibition of receptor binding", "setting": "leukotriene D4 and LTD4", "value": "less than 50%"}, {"measurement": "percent inhibition of receptor binding", "setting": "dopamine", "value": "less than 50%"}, {"measurement": "percent inhibition of receptor binding", "setting": "thromboxane A2", "value": "less than 50%"}, {"measurement": "percent inhibition of receptor binding", "setting": "[7]", "value": "less than 50%"}, {"measurement": "percent inhibition of receptor binding", "setting": "site 1 sodium", "value": "less than 50%"}, {"measurement": "percent inhibition of specific binding", "setting": "[8]", "value": 73.0, "unit": "%"}, {"measurement": "percent inhibition of receptor binding", "setting": "NK1 neurokinin", "value": "less than 50%"}, {"measurement": "percent inhibition of specific binding", "setting": "serotonin", "value": 75.6, "unit": "%"}, {"measurement": "percent inhibition of specific binding", "setting": "muscarinic", "value": 60.6, "unit": "%"}, {"measurement": "percent inhibition of receptor binding", "setting": "vasopressin 1", "value": "less than 50%"}, {"measurement": "percent inhibition of specific binding", "setting": "[9]", "value": 60.2, "unit": "%"}, {"measurement": "percent inhibition of receptor binding", "setting": "beta adrenergic", "value": "less than 50%"}, {"measurement": "percent inhibition of receptor binding", "setting": "chloride channel", "value": "less than 50%"}]}
